What was measured:
[1] = molecular target: T1, Nuclear receptor subfamily 1 group I member 2 (Homo sapiens, UniProt O75469); assay: Activation of PXR (unknown origin); type: ADME
T1 sequence (O75469 whole entry): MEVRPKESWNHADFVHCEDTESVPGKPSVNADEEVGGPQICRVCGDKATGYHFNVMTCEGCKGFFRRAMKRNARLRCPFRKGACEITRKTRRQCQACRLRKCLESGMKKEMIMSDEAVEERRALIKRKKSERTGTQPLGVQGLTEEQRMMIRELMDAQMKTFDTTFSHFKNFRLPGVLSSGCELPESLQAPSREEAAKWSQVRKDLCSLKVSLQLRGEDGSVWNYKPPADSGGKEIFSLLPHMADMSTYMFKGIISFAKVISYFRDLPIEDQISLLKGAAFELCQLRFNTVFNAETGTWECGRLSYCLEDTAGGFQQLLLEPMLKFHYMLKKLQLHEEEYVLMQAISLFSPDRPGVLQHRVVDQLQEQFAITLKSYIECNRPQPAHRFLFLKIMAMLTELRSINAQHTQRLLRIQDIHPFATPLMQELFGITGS

[2] = molecular target: 11-beta-hydroxysteroid dehydrogenase 1 (Mus musculus, UniProt P50172); assay: Inhibition of recombinant mouse 11beta-HSD1 expressed in HEK293 cell microsomes using [3H]cortisone as substrate after 4 hrs by homogeneous immuno-radiometric scintillation proximity assay
Sequence of 11-beta-hydroxysteroid dehydrogenase 1 (P50172 whole entry): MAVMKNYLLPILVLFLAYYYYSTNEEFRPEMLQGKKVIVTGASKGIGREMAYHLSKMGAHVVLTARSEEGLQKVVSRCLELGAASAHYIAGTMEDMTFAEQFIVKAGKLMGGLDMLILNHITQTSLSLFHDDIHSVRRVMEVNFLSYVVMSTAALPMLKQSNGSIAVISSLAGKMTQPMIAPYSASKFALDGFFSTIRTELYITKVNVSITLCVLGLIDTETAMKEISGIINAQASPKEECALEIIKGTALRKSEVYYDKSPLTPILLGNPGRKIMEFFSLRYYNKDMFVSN

Row | EC50 [1] [µM] | IC50 [2] [µM] | Structure (SMILES)
1 | 25 | 3.8 | OCc1cccn2c(C3(c4ccc(Cl)cc4)CC3)nnc12
2 | 3.6 | > 10 | CC(C)(O)CCc1cccn2c(C3(c4ccc(Cl)cc4)CC3)nnc12
